According to patent publication US20230157952A1, “METHOD FOR IMPROVING THE STABILITY OF A PHARMACEUTICAL COMPOSITION COMPRISING A HIGH PENETRATION DRUG, AND THE PHARMACEUTICAL COMPOSITION OBTAINED THEREFROM” (Techfields Inc., priority 2020, published 2023):
Non-standard residues stand in square brackets, D forms with d. *: point of attachment. Arg(NO2) = N=C(NCCC[C@H](N)C(=O)O)N[N+](=O)[O-]; OiPr = CC(C)O*

Columns and labels:
Format in all cases: physicochemical
[1] = Stability of the pure HPDs (dry solid) at 25° C./RH 60%; conditions: for Purity: pure HPD, 25° C./RH 60%; for Stability of the pure powder: room temperature (25° C./RH 60%); for Purity at 3 month / Purity at 6 month / Purity at 9 month / Purity at 12 month / Purity at 18 month / Purity at 24 month / Purity at Day 0: pure HPD at 25° C./RH 60%
[2] = Effect of temperature (and pH) on the stability of the solution (purity); conditions: for Purity (%) at day 30 (60° C.) / Purity (%) at day 90 (60° C.) / Purity (%) at day 180 (60° C.) / Purity (%) at day 360 (60° C.) / Purity(%) at day 0 / Purity(%) at day 30 (5° C.) / Purity(%) at day 30 (25° C.) / Purity(%) at day 30 (40° C.) / Purity(%) at day 90 (5° C.) / Purity(%) at day 90 (25° C.) / Purity(%) at day 90 (40° C.) / Purity(%) at day 180 (5° C.) / Purity(%) at day 180 (25° C.) / Purity(%) at day 180 (40° C.) / Purity(%) at day 360 (5° C.) / Purity(%) at day 360 (25° C.) / Purity(%) at day 360 (40° C.): 5% solution with 1 equivalent sodium acetate in 25% ethanol, pH 4.49-4.51
[3] = Effect of pH value on the stability of the solution (purity); conditions: for Purity(%) from day 0-28 / Purity(%) from day 0-14: 25° C.; for pH at which the solution is stable: 5% solution in 25% ethanol at 25° C.; for Time the solution can be stored at room temperature: 5% solution in 25% ethanol, pH 3-6
[4] = day 28, pH 1.0, 7% in 25% ethanol
[5] = day 28, pH 2.0, 7% in 25% ethanol
[6] = day 28, pH 3.0, 7% in 25% ethanol
[7] = day 28, pH 3.7, 7% in 25% ethanol
[8] = day 28, pH 4.6, 7% in 25% ethanol
[9] = day 28, pH 5.0, 7% in 25% ethanol
[10] = day 28, pH 6.0, 7% in 25% ethanol
[11] = day 28, pH 7.0, 7% in 25% ethanol
[12] = day 28, pH 8.0, 7% in 25% ethanol

## CCN(CC)CCOC(=O)C(C)c1ccc(CC(C)C)cc1.Cl (racemic) [C-4, 2-(diethylamino)ethyl (R,S)-2-(p-isobutylphenyl)propionate•HCl salt]
[1]; 3 month, listed as C-1-1
  Purity: 99.9 ± 0.2
[1]; 6 month, listed as C-1-1
  Purity: 99.8 ± 0.2
[1]; 9 month, listed as C-1-1
  Purity: 99.8 ± 0.3
[1]; 12 month
  Purity: 98.1 ± 0.3
[1]; 12 month, listed as C-1-1
  Purity: 99.5 ± 0.3
[1]; 18 month
  Purity: 98.0 ± 0.1
[1]; 18 month, listed as C-1-1
  Purity: 99.8 ± 0.3
[1]; 24 month
  Purity: 97.9 ± 0.3
[1]; 24 month, listed as C-1-1
  Purity: 99.7 ± 0.4
[1]; Day 0, listed as C-1-1
  Purity: 99.8 ± 0.1
[2]; 7% solution in water
  Stability of the solution at a temperature higher than 40° C. and a pH lower than 3 or greater than 6: not stable
[3]; [4]
  Purity(%) from day 0-28: 69.1 ± 0.2%
[3]; [5]
  Purity(%) from day 0-28: 80.8 ± 0.4%
[3]; [6]
  Purity(%) from day 0-28: 92.5 ± 0.3%
[3]; [7]
  Purity(%) from day 0-28: 97.2 ± 0.4%
[3]; [8]
  Purity(%) from day 0-28: 97.3 ± 0.3%
[3]; [9]
  Purity(%) from day 0-28: 94.3 ± 0.2%
[3]; [10]
  Purity(%) from day 0-28: 89.9 ± 0.3%
[3]; [11]
  Purity(%) from day 0-28: 52.8 ± 0.4%
[3]; [12]
  Purity(%) from day 0-28: 35.3 ± 0.3%

## CCCCC(=O)O.CCN(CC)CCOC(=O)c1ccccc1OC(C)=O [A-4, 2-(diethylamino)ethyl acetylsalicylate•valeric acid]
[1]; 6 month
  Purity: 98.6 ± 0.1
[1]; 12 month
  Purity: 98.0 ± 0.2
[1]; 18 month
  Purity: 97.9 ± 0.2
[1]; 24 month
  Purity: 97.2 ± 0.1
[1]; Day 0
  Purity: 98.6 ± 0.2
[3]; day 14, pH 1.0, 7% in water
  Purity(%) from day 0-14: 58.1 ± 0.3%
[3]; day 14, pH 2.0, 7% in water
  Purity(%) from day 0-14: 77.3 ± 0.2%
[3]; day 14, pH 3.0, 7% in water
  Purity(%) from day 0-14: 87.5 ± 0.3%
[3]; day 14, pH 3.7, 7% in water
  Purity(%) from day 0-14: 93.2 ± 0.3%
[3]; day 14, pH 4.0, 7% in water
  Purity(%) from day 0-14: 94.2 ± 0.4%
[3]; day 14, pH 4.3, 7% in water
  Purity(%) from day 0-14: 94.7 ± 0.2%
[3]; day 14, pH 4.6, 7% in water
  Purity(%) from day 0-14: 94.0 ± 0.2%
[3]; day 14, pH 5.0, 7% in water
  Purity(%) from day 0-14: 85.5 ± 0.4%
[3]; day 14, pH 6.0, 7% in water
  Purity(%) from day 0-14: 77.3 ± 0.3%
[3]; day 14, pH 7.0, 7% in water
  Purity(%) from day 0-14: 52.5 ± 0.4%
[3]; day 14, pH 8.0, 7% in water
  Purity(%) from day 0-14: 15.2 ± 0.4%

## CC(C)Cc1ccc([C@@H](C)C(=O)OC[C@@H]2CCCN2)cc1.Cl [C-7, 2-pyrrolidinemethyl (R,S)-2-(p-isobutylphenyl)propionate•HCl salt]
[1]; 9 month
  Purity: 98.1 ± 0.1
[1]; 18 month
  Purity: 98.0 ± 0.3
[1]; 24 month
  Purity: 97.9 ± 0.1
[3]; [4]
  Purity(%) from day 0-28: 66.8 ± 0.3%
[3]; [5]
  Purity(%) from day 0-28: 86.0 ± 0.4%
[3]; [6]
  Purity(%) from day 0-28: 86.0 ± 0.3%
[3]; [7]
  Purity(%) from day 0-28: 94.3 ± 0.3%
[3]; day 28, pH 4.0, 7% in 25% ethanol
  Purity(%) from day 0-28: 95.8 ± 0.3%
[3]; day 28, pH 4.3, 7% in 25% ethanol
  Purity(%) from day 0-28: 96.5 ± 0.4%
[3]; [8]
  Purity(%) from day 0-28: 96.2 ± 0.3%
[3]; [9]
  Purity(%) from day 0-28: 89.3 ± 0.2%
[3]; [10]
  Purity(%) from day 0-28: 86.2 ± 0.3%
[3]; [11]
  Purity(%) from day 0-28: 48.0 ± 0.3%
[3]; [12]
  Purity(%) from day 0-28: 34.3 ± 0.4%

## H-Tyr-Gly-Gly-Phe-Met-OCH(CH3)2.HCl [U-2]
[1]; 3 month
  Purity: 98.9 ± 0.3
[1]; 6 month
  Purity: 98.6 ± 0.2
[1]; 9 month
  Purity: 98.6 ± 0.3
[1]; 12 month
  Purity: 98.5 ± 0.2
[1]; 18 month
  Purity: 98.5 ± 0.2
[1]; 24 month
  Purity: 98.4 ± 0.2
[1]; Day 0
  Purity: 98.9 ± 0.1
[1]
  Stability of the pure powder: very stable
[3]
  pH at which the solution is stable: 3-6
  Time the solution can be stored at room temperature: about 1 year

## H-Val-Pro-Asp[OCH(CH3)2]-Pro-Arg(NO2)—OCH(CH3)2•HCl [T-3]
[1]
  Purity at 3 month: 99.0 ± 0.2
  Purity at 6 month: 99.0 ± 0.2
  Purity at 9 month: 98.8 ± 0.2
  Purity at 12 month: 98.7 ± 0.0
  Purity at 18 month: 98.6 ± 0.0
  Purity at 24 month: 98.5 ± 0.2
  Purity at Day 0: 99.1 ± 0.2
  Stability of the pure powder: very stable
[2]
  Purity (%) at day 30 (60° C.): 33.2 ± 0.3%
  Purity (%) at day 90 (60° C.): 0%
  Purity (%) at day 180 (60° C.): 0%
  Purity (%) at day 360 (60° C.): 0%
  Purity(%) at day 0: 99.1 ± 0.1%
  Purity(%) at day 30 (5° C.): 98.9 ± 0.2%
  Purity(%) at day 30 (25° C.): 97.9 ± 0.3%
  Purity(%) at day 30 (40° C.): 71.9 ± 0.2%
  Purity(%) at day 90 (5° C.): 98.6 ± 0.3%
  Purity(%) at day 90 (25° C.): 97.2 ± 0.3%
  Purity(%) at day 90 (40° C.): 34.2 ± 0.3%
  Purity(%) at day 180 (5° C.): 97.9 ± 0.2%
  Purity(%) at day 180 (25° C.): 95.2 ± 0.3%
  Purity(%) at day 180 (40° C.): 13.5 ± 0.3%
  Purity(%) at day 360 (5° C.): 97.4 ± 0.3%
  Purity(%) at day 360 (25° C.): 92.5 ± 0.4%
  Purity(%) at day 360 (40° C.): 0%
[3]
  pH at which the solution is stable: 3-6
  Time the solution can be stored at room temperature: about 1 year

## H-Val-Pro-Gly-Pro-Arg(NO2)—OCH(CH3)2•HCl (H-VPGP[Arg(NO2)]-OiPr; also: HCl salt)
[1]; in % (unit assumed)
  Purity at 3 month: 98.8 ± 0.2
  Purity at 6 month: 98.6 ± 0.2
  Purity at 9 month: 98.5 ± 0.2
  Purity at 12 month: 98.4 ± 0.3
  Purity at 18 month: 98.2 ± 0.3
  Purity at 24 month: 98.2 ± 0.2
  Purity at Day 0: 98.7 ± 0.2
[1]
  Stability of the pure powder: very stable
[2]
  Purity (%) at day 30 (60° C.): 32.4 ± 0.4%
  Purity (%) at day 90 (60° C.): 0%
  Purity (%) at day 180 (60° C.): 0%
  Purity (%) at day 360 (60° C.): 0%
  Purity(%) at day 0: 98.7 ± 0.2%
  Purity(%) at day 30 (5° C.): 98.5 ± 0.3%
  Purity(%) at day 30 (25° C.): 97.7 ± 0.2%
  Purity(%) at day 30 (40° C.): 71.6 ± 0.2%
  Purity(%) at day 90 (5° C.): 98.4 ± 0.3%
  Purity(%) at day 90 (25° C.): 97.0 ± 0.3%
  Purity(%) at day 90 (40° C.): 32.7 ± 0.3%
  Purity(%) at day 180 (5° C.): 97.8 ± 0.3%
  Purity(%) at day 180 (25° C.): 95.1 ± 0.3%
  Purity(%) at day 180 (40° C.): 12.2 ± 0.3%
  Purity(%) at day 360 (5° C.): 97.3 ± 0.3%
  Purity(%) at day 360 (25° C.): 92.2 ± 0.2%
  Purity(%) at day 360 (40° C.): 0%
[3]
  pH at which the solution is stable: 3-6
  Time the solution can be stored at room temperature: about 1 year
